In US20130295115A1, “COMPOSITIONS AND METHODS FOR TREATING […]” (priority 2010, published 2013):

Key:
West Nile virus = assay type: cell-based
Sindbis virus / NRAMP2 = Sindbis virus / NRAMP2 (Homo sapiens, UniProt P49281); assay type: cell-based
Ross River virus = assay type: cell-based; conditions: iron treatment (not shown)
Sindbis virus [1] = assay type: cell-based
[2] = test system: Vesicular Stomatitis Virus; assay type: cell-based
[3] = test system: Venezuelan Equine Encephalitis virus (VEE); assay type: cell-based
hNRAMP2 = assay: NRAMP2 expression (RT-PCR) in U2OS cells with iron; assay type: cell-based, human
Description: Cells were treated with 160 μM Ammonium Iron(III) Citrate for three days prior to and throughout the infection.
Total RNA was purified using Trizol and used for reverse transcription with random priming and MLV-RT (Invitrogen) followed by PCR using the indicated primers.

Sindbis virus [4] = assay type: cell-based; remark: listed apart in the source
[5] = molecular target: human Natural Resistance-Associated Macrophage Protein 2 (hNRAMP2) (human) (UniProt P49281); assay: cell-based or functional assay
Chain of human Natural Resistance-Associated Macrophage Protein 2 (hNRAMP2) (human) (P49281 whole entry): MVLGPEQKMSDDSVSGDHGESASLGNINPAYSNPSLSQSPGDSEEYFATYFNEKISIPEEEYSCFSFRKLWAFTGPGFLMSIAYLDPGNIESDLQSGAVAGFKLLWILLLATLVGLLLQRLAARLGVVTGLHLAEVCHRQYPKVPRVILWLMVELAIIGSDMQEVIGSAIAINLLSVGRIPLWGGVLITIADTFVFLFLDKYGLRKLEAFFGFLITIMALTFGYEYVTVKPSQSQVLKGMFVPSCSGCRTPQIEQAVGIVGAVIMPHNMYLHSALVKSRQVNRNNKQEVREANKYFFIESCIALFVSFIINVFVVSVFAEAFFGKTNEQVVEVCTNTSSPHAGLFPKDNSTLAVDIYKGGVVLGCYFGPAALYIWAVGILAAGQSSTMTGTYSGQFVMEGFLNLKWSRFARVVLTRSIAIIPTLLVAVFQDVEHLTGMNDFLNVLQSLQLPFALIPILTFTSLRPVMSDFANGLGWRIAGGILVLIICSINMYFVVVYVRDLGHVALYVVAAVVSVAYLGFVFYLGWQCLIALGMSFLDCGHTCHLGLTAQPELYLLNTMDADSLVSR

Chain of Sindbis virus / NRAMP2 (P49281 whole entry, looked up): as the sequence (P49281 whole entry) above

Compound: Ammonium Iron(III) Citrate
- West Nile virus infection (West Nile virus): no effect
- NRAMP2 co-precipitation with Sindbis virus (Sindbis virus / NRAMP2): lost
- Sindbis virus binding (streptavidin precipitation, immunoblot) (Sindbis virus / NRAMP2): attenuated
- Ross River virus infection (Ross River virus): insensitive
- reduction in virus binding to iron-treated cells compared to controls (Sindbis virus [1]): ~17 fold
- VSV infection [2]: no effect
- VEE infection [3]: sensitive
- NRAMP2 expression (hNRAMP2; NRAMP2 over-expressing cells treated with iron (FIG. 7A)): decrease
- NRAMP2 expression (hNRAMP2; U2OS cells, high iron (FIG. 7A)): decreased

Compound: Cl.N [ammonium chloride]
- Sindbis infection (Sindbis virus [4]): inhibited infection

Compound: Sindbis virus (biotinylated infectious virus particles)
- percentage of infected cells on NRAMP2 over-expression [5]: 2 fold
